Results from US4839388A, “Prostacyclins and pharmaceuticals containing the same” (Mitsubishi Chemical Industries Limited, priority 1985, dated 1989).

Tests used:
[1] = tested on: Human platelet aggregation; assay: Platelet aggregation inhibiting effect (human platelet rich plasma, ADP induced, in vitro); type: cell-based; conditions: 1 min, human PRP, ADP 2 to 10 μM, 37° C., one minute incubation, read-out: Platelet aggregation inhibiting ratio (IC50)
Experimental: Bloods were sampled from healthy male adults (22 to 34 years old) with no administration of drug for 2 weeks or more early in the morning when they were hungry. By use of an injector filled with a 3.8% sodium citrate solution, 50 ml of blood was sampled, immediately stirred by turning upside down and centrifuged at 200 G for 15 minutes. The supernatant was separated as the PRP (platelet rich plasma) and the residue was further subjected to centrifugation at 2000 G for 15 minutes, followed by recovery of the supernatant as PPP (poor platelet plasma) which ws provided for use in the experiment. 250 μl of PRP was placed in a cuvette, 5 μl of an 1% aqueous ethanol solution of the compound of the present invention or an 1% acqueous ethanol solution was added, and incubation was carried out at 37° C. for one minute. Then, an aggregation inducing agent (ADP) was added and the process of aggregation was recorded by Aggregometer (produced by Sienco Co.). As the concentration of ADP, the minimum concentrations of ADP (2 to 10 μM) to give the maximum aggregation for respective platelets were employed. The inhibition percentage of platelet aggregation was calculated by the following formula:
Inhibition percentage=(A-B/A)×100
A: Maximum aggregation ratio during addition of solvent ([…] aqueous ethanol solution)
B: Maximum aggregation ratio during addition of the compound of the present invention.
The platelet aggregation inhibiting effects of the compounds of the present invention are shown in terms of IC50 values in Table 1.

[2] = tested on: Rat secreted gastric acid; assay: Antiulcer effect: rat secreted gastric acid inhibiting effect (pylorus ligature); type: in vivo, Male wistar strain rats; conditions: 100 μg/kg, s.c., immediately after pylorus ligature; for Inhibition percentage: gastric acid vs. control group; for Amount of gastric acid secreted: gastric juice sampled after 4 hours, solvent 73.6 ± 4.3
Experimental: Male wistar strain rats (weighing 250-280 g) were fasted for 18 hours and subjected to peritoneotomy under ether anesthesia for ligature of pylorus, and after 4 hours under abstinence from food and water, gastric juice was sampled. The gastric juice was centrifuged at 3000 rpm for 10 minutes, and then the amount, pH and acidity of the gastric juice were measured. The acidity was measured by titration bymeans of an automatic titrating device (produced by Toa Denpa Kogyo) with a 0.1 N NaOH to pH 7.0 and calculated according to the following formula: [formula]
The gastric juice secretion inhibition percentage was calculated according to the following formula: [formula] A: Amount of gastric acid excreted in Control group B: Amount of gastric acid excreted in Drug group.
The drugs to be tested were administrated subcutaneously immediately after pylorus ligature.

Row | IC50 [1] | SMILES | Inhibition percentage [2] | Amount of gastric acid secreted [2]
1 | 10 nM | O=C(O)CCC=CC1=C[C@H]2C[C@@H](O)[C@H](C#CC(O)C3CCCCC3)[C@H]2C1 (stereo partly shown) [drawing 46] |  | 
2 | 4.5 nM | O=C(O)COCCC1=C[C@H]2C[C@@H](O)[C@H](C#CC(O)C3CCCCC3)[C@H]2C1 (stereo partly shown) [drawing 48] |  | 
3 |  | O=C(O)CCC=CC1=C[C@H]2C[C@@H](O)[C@H](C#CC(O)C3CCCCC3)[C@H]2C1 (stereo partly shown) [drawing 50] | 7.1% | 68.4 ± 10.1 mEq/l
4 | 12 nM | O=C(O)CCC/C=C1\C[C@H]2C[C@@H](O)[C@H](/C=C/[C@@H](O)C3CCCC3)[C@H]2C1 [OP-41483, reference compound] |  | 
5 |  | O=C(O)COCCC1=C[C@H]2C[C@@H](O)[C@H](C#CC(O)C3CCCCC3)[C@H]2C1 (stereo partly shown) [drawing 52] | 0% | 84.9 ± 10.8 mEq/l
